According to the supplement of paper PMC13380429:

What was measured:
Details in all cases: 72 h
[1] = test system: Calu-3; experiment: drug sensitivity score (DSS) for viability; higher = more toxic; extreme values may be limits of the assay
[2] = test system: U2OS; experiment: as above
[3] = test system: HepG2; experiment: as above
[4] = test system: Caco-2; experiment: as above
[5] = test system: Calu-3; experiment: cell viability relative to DMSO; higher = less toxic
[6] = test system: U2OS; experiment: as above
[7] = test system: HepG2; experiment: as above
[8] = test system: Caco-2; experiment: as above
[9] = test system: Calu-3; experiment: relative viability EC50 (midpoint between 100% and the lowest measured viability); higher = less toxic
[10] = test system: U2OS; experiment: as above
[11] = test system: HepG2; experiment: as above
[12] = test system: Caco-2; experiment: as above
[13] = test system: Vero E6; experiment: drug sensitivity score (DSS) for viability; higher = more toxic; extreme values may be limits of the assay
[14] = test system: Vero E6; experiment: cell viability relative to DMSO; higher = less toxic
[15] = test system: Vero E6; experiment: relative viability EC50 (midpoint between 100% and the lowest measured viability); higher = less toxic

| Compound | drug sensitivity score [1] | drug sensitivity score [2] | drug sensitivity score [3] | drug sensitivity score [4] | cell viability ([5]; 1 nM) [%] | cell viability ([5]; 10 nM) [%] | cell viability ([5]; 100 nM) [%] | cell viability ([5]; 1000 nM) [%] | cell viability ([5]; 10000 nM) [%] | cell viability ([6]; 1 nM) [%] | cell viability ([6]; 10 nM) [%] | cell viability ([6]; 100 nM) [%] | cell viability ([6]; 1000 nM) [%] | cell viability ([6]; 10000 nM) [%] | cell viability ([7]; 1 nM) [%] | cell viability ([7]; 10 nM) [%] | cell viability ([7]; 100 nM) [%] | cell viability ([7]; 1000 nM) [%] | cell viability ([7]; 10000 nM) [%] | cell viability ([8]; 1 nM) [%] | cell viability ([8]; 10 nM) [%] | cell viability ([8]; 100 nM) [%] | cell viability ([8]; 1000 nM) [%] | cell viability ([8]; 10000 nM) [%] | relative viability EC50 [9] [µM] | relative viability EC50 [10] [µM] | relative viability EC50 [11] [µM] | relative viability EC50 [12] [µM] | drug sensitivity score [13] | cell viability ([14]; 1 nM) [%] | cell viability ([14]; 10 nM) [%] | cell viability ([14]; 100 nM) [%] | cell viability ([14]; 1000 nM) [%] | cell viability ([14]; 10000 nM) [%] | relative viability EC50 [15] [µM] |
| --- | --- | --- | --- | --- | --- | --- | --- | --- | --- | --- | --- | --- | --- | --- | --- | --- | --- | --- | --- | --- | --- | --- | --- | --- | --- | --- | --- | --- | --- | --- | --- | --- | --- | --- | --- |
| CC[C@H](C)[C@H](NC(=O)[C@H](Cc1ccc(O)cc1)NC(=O)[C@@H](NC(=O)[C@H](CCCNC(=N)N)NC(=O)[C@@H](N)CC(=O)O)C(C)C)C(=O)N[C@@H](Cc1c[nH]cn1)C(=O)N1CCC[C@H]1C(=O)O [TXA127] | 0 | 0 | 0 | 0 | 95.2 | 90.6 | 97.9 | 89.2 | 105 | 98.9 | 98.7 | 99.1 | 93.3 | 96.9 | 96.2 | 105 | 89.3 | 104 | 92.4 | 104 | 110 | 98.2 | 99.4 | 89.4 | > 10 | > 10 | > 10 | > 10 | – | – | – | – | – | – | – |
| OCC[N+]12CN3CN(CN(C3)C1)C2 [Y-11] | 0 | – | 0 | 0 | 97.6 | 90.1 | 98 | 102 | 99.1 | – | – | – | – | – | 97.6 | 90.5 | 102 | 102 | 110 | 102 | 108 | 97.2 | 101 | 99.2 | > 10 | – | > 10 | > 10 | 0 | 102 | 99.1 | 106 | 96.2 | 100 | > 10 |
| COc1cc(Nc2c(C#N)cnc3cc(OCCCN4CCN(C)CC4)c(OC)cc23)c(Cl)cc1Cl [bosutinib] | – | 4.7 | 7.6 | 5.2 | – | – | – | – | – | 95.4 | 101 | 102 | 97.1 | 22.7 | 105 | 101 | 101 | 81.6 | 15.9 | 95.2 | 99.1 | 107 | 87.1 | 42.6 | – | 2.88 | 1.66 | 1.64 | 8.6 | 98.7 | 100 | 99.9 | 72.5 | 15.2 | 1.34 |
| CN(C)CCOC(c1ccc(Cl)cc1)c1ccccn1 (stereo not given) [carbinoxamine] | 0 | – | 0 | 0 | 108 | 110 | 101 | 97.4 | 103 | – | – | – | – | – | 99.9 | 95.8 | 102 | 104 | 99.6 | 110 | 98.7 | 97.2 | 99.5 | 95.3 | > 10 | – | > 10 | > 10 | 0 | 94.5 | 102 | 99.4 | 106 | 106 | > 10 |
| O=C(O)C(Cl)Cl [dichloroacetate] | – | 0 | 0 | 0 | – | – | – | – | – | 104 | 96.2 | 97.4 | 96 | 99.6 | 111 | 104 | 110 | 93.2 | 102 | 102 | 106 | 116 | 97.3 | 98.6 | – | > 10 | > 10 | > 10 | 0 | 104 | 96.3 | 96.1 | 104 | 96 | > 10 |
| COc1ccc(C(=O)c2ccccc2O)c(O)c1 [dioxybenzone] | 0 | 0 | 0 | 0 | 106 | 93.3 | 97.7 | 91.1 | 106 | 103 | 99 | 100 | 105 | 102 | 102 | 92 | 96.9 | 96 | 99.3 | 101 | 91 | 106 | 98.7 | 101 | > 10 | > 10 | > 10 | > 10 | 1.6 | 110 | 73.6 | 92.4 | 99.4 | 67.2 | – |
| Cc1nc(-c2ccc(OCC(C)C)c(C#N)c2)sc1C(=O)O [febuxostat] | – | 0 | 0 | 0 | – | – | – | – | – | 92.8 | 99.9 | 97.2 | 102 | 106 | 112 | 96.8 | 107 | 96.8 | 94.1 | 93.5 | 94 | 104 | 98.6 | 96.1 | – | > 10 | > 10 | > 10 | 0 | 94.3 | 98.5 | 100 | 101 | 96.4 | > 10 |
| CCOCc1cc(OC)c(-c2ccc(C[C@H](NC(=O)c3c(F)cccc3F)C(=O)O)cc2)c(OC)c1 [firategrast] | 0 | – | 0 | 0 | 103 | 94.1 | 86.4 | 99.7 | 98.5 | – | – | – | – | – | 104 | 105 | 90.3 | 99.3 | 96.6 | 99.3 | 94.6 | 104 | 93.9 | 101 | > 10 | – | > 10 | > 10 | 0 | 96.3 | 101 | 98.5 | 101 | 98 | > 10 |
| C[N+](C)(C)CCCCCC[N+](C)(C)C [hexamethonium] | 0 | 0 | 0 | 0 | 86.3 | 97.1 | 101 | 108 | 103 | 100 | 102 | 96.2 | 103 | 99.8 | 109 | 96.7 | 97.6 | 95.3 | 96.6 | 97.3 | 104 | 98.2 | 99.4 | 100 | > 10 | > 10 | > 10 | > 10 | – | – | – | – | – | – | – |
| O=C(O)C1=CCNCC1 [isoguvacine] | 0 | – | 0 | 0 | 105 | 99.1 | 104 | 94.5 | 94.4 | – | – | – | – | – | 91 | 98.5 | 91.9 | 96.1 | 95 | 106 | 99.5 | 108 | 106 | 98.7 | > 10 | – | > 10 | > 10 | 0 | 101 | 103 | 100 | 99.4 | 98.2 | > 10 |
| CCCCCCCCCCCC(=O)N(CCO)CCO [lauric-diethanolamide] | – | 0 | 0 | 0 | – | – | – | – | – | 99.4 | 95.9 | 101 | 98.5 | 102 | 94 | 99.1 | 93.5 | 96.8 | 90.1 | 107 | 90.1 | 98.7 | 92.7 | 101 | – | > 10 | > 10 | > 10 | 0 | 104 | 101 | 103 | 102 | 97.3 | > 10 |
| CC(=O)c1cc2c(o1)C(=O)c1ccccc1C2=O [napabucasin] | 1.8 | 5.8 | 18.4 | 10.7 | 124 | 109 | 101 | 106 | 56.4 | 102 | 98.5 | 102 | 98.9 | -0.4 | 102 | 109 | 97.1 | -0.9 | -0.3 | 103 | 98.5 | 95.3 | 55.8 | 0.5 | – | 3.07 | 0.291 | 1.13 | 7.4 | 88.7 | 99.5 | 89.6 | 88.8 | -0.4 | 2.24 |
| CC(=O)O[C@H]1C[C@@H]2CC[C@@H]3[C@H](CC[C@@]4(C)[C@H]3C[C@H]([N+]3(C)CCCCC3)[C@@H]4OC(C)=O)[C@@]2(C)C[C@@H]1[N+]1(C)CCCCC1 [pancuronium] | 0 | – | 0 | 0 | 114 | 101 | 103 | 104 | 99.5 | – | – | – | – | – | 98.2 | 103 | 101 | 106 | 102 | 106 | 99.9 | 97.8 | 97.5 | 94.1 | > 10 | – | > 10 | > 10 | 0 | 102 | 102 | 106 | 101 | 97.9 | > 10 |
| Cc1ccc(N(CC2=NCCN2)c2cccc(O)c2)cc1 [phentolamine] | 0 | 0 | 0 | 0 | 99.8 | 103 | 105 | 93.5 | 106 | 99.3 | 100 | 94.7 | 101 | 97.3 | 96.8 | 96.5 | 106 | 106 | 104 | 99 | 98.8 | 109 | 97.4 | 91.1 | > 10 | > 10 | > 10 | > 10 | – | – | – | – | – | – | – |
| CC(N)C12CC3CC(CC(C3)C1)C2 (stereo not given) [rimantadine] | 0 | 0 | 0 | 0 | 91 | 84.1 | 82.5 | 96.6 | 95.6 | 95.3 | 98 | 101 | 102 | 104 | 93.6 | 108 | 100 | 101 | 103 | 101 | 94.6 | 101 | 103 | 103 | > 10 | > 10 | > 10 | > 10 | – | – | – | – | – | – | – |
| Cc1ccc(C(=O)c2ccc(CC(=O)O)n2C)cc1 [tolmetin] | 0 | 0 | 0 | 0 | 88.7 | 97.8 | 92.4 | 90.9 | 96.6 | 96.8 | 102 | 92.4 | 97.8 | 102 | 109 | 109 | 100 | 108 | 93.7 | 90.4 | 94.6 | 94.6 | 90.7 | 105 | > 10 | > 10 | > 10 | > 10 | – | – | – | – | – | – | – |
